According to patent US9914730B2, “Azaquinazoline inhibitors of Atypical protein Kinase C” (Ignyta, Inc., priority 2012, dated 2018):

Key:
full-length human PKCι = biological target: T1, full-length human PKCι (Homo sapiens, UniProt P41743); experiment: PKCι IC50 IMAP assay, full-length PKCι at 150 μM ATP; format: biochemical; conditions: read-out: IC50 in IMAP assay against full length PKCi at 150 μM ATP
T1 construct: Recombinant, full-length human PKCι expressed in Sf21 insect cells is also commercially available; purchased; host or cells: Sf21 insect cells
T1 sequence (P41743 1-596): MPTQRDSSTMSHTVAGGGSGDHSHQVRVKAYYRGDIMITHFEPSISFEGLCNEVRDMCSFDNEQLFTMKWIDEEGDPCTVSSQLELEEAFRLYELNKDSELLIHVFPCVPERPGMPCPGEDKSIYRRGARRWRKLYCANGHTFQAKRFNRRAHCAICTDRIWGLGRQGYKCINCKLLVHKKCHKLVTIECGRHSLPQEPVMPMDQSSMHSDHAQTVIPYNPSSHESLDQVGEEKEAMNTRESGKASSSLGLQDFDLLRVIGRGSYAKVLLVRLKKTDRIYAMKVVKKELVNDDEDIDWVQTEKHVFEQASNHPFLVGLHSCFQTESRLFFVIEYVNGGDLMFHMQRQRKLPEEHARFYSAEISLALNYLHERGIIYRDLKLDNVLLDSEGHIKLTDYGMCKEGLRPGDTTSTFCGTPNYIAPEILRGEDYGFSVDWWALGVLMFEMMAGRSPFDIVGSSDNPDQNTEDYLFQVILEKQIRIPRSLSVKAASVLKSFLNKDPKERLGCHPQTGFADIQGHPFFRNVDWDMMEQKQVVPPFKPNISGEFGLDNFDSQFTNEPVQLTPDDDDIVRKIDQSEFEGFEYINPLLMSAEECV
How it was run: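 Compounds in 4% final DMSO are mixed with Sf21-derived full-length human PKCι (typically 15 pM) and 100 nM FAM-labelled pseudosubstrate peptide, then started with 150 μM ATP. Reaction runs 60 min at room temperature, is quenched with IMAP development reagent for 2 h, and fluorescence polarisation is measured to derive IC50.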

NSCLC cells = conditions: pharmacological inhibition of PKCι; literature (Regala et al.); cited from earlier work
follicular lymphoma = conditions: by targeting a PKCζ-MAPK-mTOR pathway; literature (Leseux et al.); cited from earlier work

With `COc1cncc2nc(-c3ccnc(Nc4ccccc4)c3)nc(N3CC[C@@H](CO)C3)c12` [Example 465, {(R)-1-[5-Methoxy-2-(2-phenylamino-pyridin-4-yl)-pyrido[3,4-d]pyrimidin-4-yl]-pyrrolidin-3-yl}-methanol] the IC50 (full-length human PKCι) was 1000 to 10000 nM and the melting point was 208 to 209 °C.
Compound `COc1cncc2nc(-c3ccnc(Nc4ccccc4)c3)nc(N3CC[C@H](CO)C3)c12` [Example 466, {(S)-1-[5-Methoxy-2-(2-phenylamino-pyridin-4-yl)-pyrido[3,4-d]pyrimidin-4-yl]-pyrrolidin-3-yl}-methanol] has an IC50 (full-length human PKCι) of 1000 to 10000 nM and a melting point of 210 to 211 °C.
In the case of `N#Cc1ccc(CC(=O)Nc2cc(-c3nc(N4CCNCC4)c4c(C5CC5)cncc4n3)ccn2)cc1` [Example 473, 2-(4-Cyano-phenyl)-N-[4-(5-cyclopropyl-4-piperazin-1-yl-pyrido[3,4-d]pyrimidin-2-yl)-pyridin-2-yl]-acetamide], the IC50 (full-length human PKCι) is reported as < 100 nM and the melting point is reported as 200 to 203 °C.
With `Cc1cc(N2CCOCC2)ccc1Nc1cc(-c2nc(N3CCNCC3)c3c(C4CC4)cncc3n2)ccn1` [Example 474, [4-(5-Cyclopropyl-4-piperazin-1-yl-pyrido[3,4-d]pyrimidin-2-yl)-pyridin-2-yl]-(2-methyl-4-morpholin-4-yl-phenyl)-amine] the IC50 (full-length human PKCι) was < 100 nM and the melting point was 214 to 220 °C.
For `c1cc(-c2nc(N3CCNCC3)c3c(C4CC4)cncc3n2)cc(Nc2ccc(N3CCOCC3)nc2)n1` [Example 475, [4-(5-Cyclopropyl-4-piperazin-1-yl-pyrido[3,4-d]pyrimidin-2-yl)-pyridin-2-yl]-(6-morpholin-4-yl-pyridin-3-yl)-amine], the IC50 (full-length human PKCι) was < 100 nM and the melting point was 217 to 219 °C.
In the case of `c1cncc(Nc2cc(-c3nc(N4CCNCC4)c4c(C5CC5)cncc4n3)ccn2)c1` [Example 476, [4-(5-Cyclopropyl-4-piperazin-1-yl-pyrido[3,4-d]pyrimidin-2-yl)-pyridin-2-yl]-pyridin-3-yl-amine], the IC50 (full-length human PKCι) is reported as < 100 nM and the melting point is reported as 226 to 228 °C.
In the case of `O=C(O)CC([S-])C(=O)O.[Au+]` (centres unmarked) [aurothiomalate], the “growth of NSCLC cells in soft agar” value (NSCLC cells) is listed as “blocks the growth”.
For “Rituximab: "the anti-CD20 therapeutic antibody rituximab"”, the follicular lymphoma proliferation (follicular lymphoma) is given as “inhibits follicular lymphoma proliferation”.
